Assay results reported in US4345938A, “Herbicidal 2-haloacetanilides” (Monsanto Company, priority 1980, dated 1982).
Where two headings read alike, the source gives them in different places.

Key:
Assay type in all cases: in vivo
Sagittaria trifolia = test: Field transplant rice test, applied 9 DAT, ST; conditions: 216 h, read-out: Percent Inhibition, ST; for inhibition at 375 g/ha: 0.375 Kg/Ha; for inhibition at 750 g/ha: 0.75 Kg/Ha; for inhibition at 1500 g/ha: 1.5 Kg/Ha; for inhibition at 3000 g/ha: 3.0 Kg/Ha
Procedure: (§1) The test data in Table III for all compounds was obtained under identical test conditions. The weeds used in the tests herein have the following abbreviations in the tables: Echinochloa crus-galli (EC), Monochloria vaginalis (MV), Cyperus Serotinus (CS), Eleocharis Kuroguwai (EK) and Sagittaria trifolia (ST).
(§2) In further comparative tests, a preferred compound of this invention (Example 1) was tested in the field with prior art Compounds A-D. These tests were conducted under conditions reflecting herbicide application times generally favorable to all herbicides in the test. The timing of application of herbicides to transplant rice is very important, whether, as in some instances, prior to transplanting the rice; in other instances, at the time of transplanting or else after transplanting. Application times are conventionally referred to as "days before transplant" (DBT) or "days after transplant" ("DAT"). The field test data in Table IV was obtained from a test in which the herbicides were applied at the time of transplant, i.e., "0 DAT", with observations being made weekly up to six weeks after transplant ("WAT") beginning at two weeks after transplant; for illustrative and representative purposes, only the early, middle and late period observations, i.e., 2 WAT, 4 WAT and 6 WAT, are shown in Table IV. The data in Table IV is for rates of application common to all herbicides in the test, i.e., from 3.0 kg/ha (2.67 lb/A) down to 0.375 kg/ha (0.34 lb/A). All herbicides were applied at their actual or expected use rates, i.e., as granules containing 2.5% by weight herbicide for the compound of Example 1, Compounds B, C and D and 5.0% by weight for Compound A.
In Table V are presented field data showing the relative performance of the compound of Example 1 and Compounds A-D applied 9 DAT, with observations being made weekly from 3 WAT to 7 WAT; again, for illustrative and representative purposes, only the early, middle and late period observations are reported in Table V, the herbicide rates and concentrations of active ingredients the same as is shown in Table IV.

Eleocharis kuroguwai = test: Field transplant rice test, applied 0 DAT, EK; conditions: 0 h, read-out: Percent Inhibition, EK; for inhibition at 375 g/ha: 0.375 Kg/Ha; for inhibition at 750 g/ha: 0.75 Kg/Ha; for inhibition at 1500 g/ha: 1.5 Kg/Ha; for inhibition at 3000 g/ha: 3.0 Kg/Ha
Procedure: as §1, §2

Echinochloa crus-galli = test: Field transplant rice test, applied 0 DAT, EC; conditions: 0 h, read-out: Percent Inhibition, EC; for inhibition at 375 g/ha: 0.375 Kg/Ha; for inhibition at 750 g/ha: 0.75 Kg/Ha; for inhibition at 1500 g/ha: 1.5 Kg/Ha; for inhibition at 3000 g/ha: 3.0 Kg/Ha
Procedure: as §1, §2

Structure (SMILES)	inhibition at 375 g/ha (Sagittaria trifolia; 3 WAT) [%]	inhibition at 375 g/ha (Sagittaria trifolia; 5 WAT) [%]	inhibition at 375 g/ha (Sagittaria trifolia; 7 WAT) [%]	inhibition at 750 g/ha (Sagittaria trifolia; 3 WAT) [%]	inhibition at 750 g/ha (Sagittaria trifolia; 5 WAT) [%]	inhibition at 750 g/ha (Sagittaria trifolia; 7 WAT) [%]	inhibition at 1500 g/ha (Sagittaria trifolia; 3 WAT) [%]	inhibition at 1500 g/ha (Sagittaria trifolia; 5 WAT) [%]	inhibition at 1500 g/ha (Sagittaria trifolia; 7 WAT) [%]	inhibition at 3000 g/ha (Sagittaria trifolia; 3 WAT) [%]	inhibition at 3000 g/ha (Sagittaria trifolia; 5 WAT) [%]	inhibition at 3000 g/ha (Sagittaria trifolia; 7 WAT) [%]	inhibition at 375 g/ha (Eleocharis kuroguwai; 2 WAT) [%]	inhibition at 375 g/ha (Eleocharis kuroguwai; 4 WAT) [%]	inhibition at 375 g/ha (Eleocharis kuroguwai; 6 WAT) [%]	inhibition at 750 g/ha (Eleocharis kuroguwai; 2 WAT) [%]	inhibition at 750 g/ha (Eleocharis kuroguwai; 4 WAT) [%]	inhibition at 750 g/ha (Eleocharis kuroguwai; 6 WAT) [%]	inhibition at 1500 g/ha (Eleocharis kuroguwai; 2 WAT) [%]	inhibition at 1500 g/ha (Eleocharis kuroguwai; 4 WAT) [%]	further results
CCCCOCCN(C(=O)CCl)c1c(CC)cccc1CC [Compound B, 2',6'-diethyl-N-(n-butoxyethyl)-2-chloroacetanilide]	5	2	5	38	12	10	40	25	13	42	25	12	48	37	7	63	42	0	73	65	inhibition at 1500 g/ha (Eleocharis kuroguwai; 6 WAT): 17%; inhibition at 3000 g/ha (Eleocharis kuroguwai; 2 WAT): 100%; inhibition at 3000 g/ha (Eleocharis kuroguwai; 4 WAT): 94%; inhibition at 3000 g/ha (Eleocharis kuroguwai; 6 WAT): 72%; inhibition at 375 g/ha (Echinochloa crus-galli; 2 WAT): 55%; inhibition at 375 g/ha (Echinochloa crus-galli; 4 WAT): 68%; inhibition at 375 g/ha (Echinochloa crus-galli; 6 WAT): 37%; inhibition at 750 g/ha (Echinochloa crus-galli; 2 WAT): 87%; inhibition at 750 g/ha (Echinochloa crus-galli; 4 WAT): 93%; inhibition at 750 g/ha (Echinochloa crus-galli; 6 WAT): 88%; inhibition at 1500 g/ha (Echinochloa crus-galli; 2 WAT): 90%; inhibition at 1500 g/ha (Echinochloa crus-galli; 4 WAT): 98%; inhibition at 1500 g/ha (Echinochloa crus-galli; 6 WAT): 98%; inhibition at 3000 g/ha (Echinochloa crus-galli; 2 WAT): 97%; inhibition at 3000 g/ha (Echinochloa crus-galli; 4 WAT): 100%; inhibition at 3000 g/ha (Echinochloa crus-galli; 6 WAT): 100%
CCCCOCN(C(=O)CCl)c1c(C)cccc1C(C)(C)C [Compound C, 2'-methyl-6'-tert-butyl-N-(n-butoxymethyl)-2-chloroacetanilide]	47	10	2	32	8	0	48	17	7	30	13	3	63	52	18	68	58	18	85	93	inhibition at 1500 g/ha (Eleocharis kuroguwai; 6 WAT): 67%; inhibition at 3000 g/ha (Eleocharis kuroguwai; 2 WAT): 82%; inhibition at 3000 g/ha (Eleocharis kuroguwai; 4 WAT): 90%; inhibition at 3000 g/ha (Eleocharis kuroguwai; 6 WAT): 80%; inhibition at 375 g/ha (Echinochloa crus-galli; 2 WAT): 98%; inhibition at 375 g/ha (Echinochloa crus-galli; 4 WAT): 100%; inhibition at 375 g/ha (Echinochloa crus-galli; 6 WAT): 98%; inhibition at 750 g/ha (Echinochloa crus-galli; 2 WAT): 100%; inhibition at 750 g/ha (Echinochloa crus-galli; 4 WAT): 100%; inhibition at 750 g/ha (Echinochloa crus-galli; 6 WAT): 100%; inhibition at 1500 g/ha (Echinochloa crus-galli; 2 WAT): 100%; inhibition at 1500 g/ha (Echinochloa crus-galli; 4 WAT): 100%; inhibition at 1500 g/ha (Echinochloa crus-galli; 6 WAT): 100%; inhibition at 3000 g/ha (Echinochloa crus-galli; 2 WAT): 98%; inhibition at 3000 g/ha (Echinochloa crus-galli; 4 WAT): 100%; inhibition at 3000 g/ha (Echinochloa crus-galli; 6 WAT): 100%
CCCOCCN(C(=O)CCl)c1c(CC)cccc1CC [Compound D, 2',6'-diethyl-N-(n-propoxyethyl)-2-chloroacetanilide]	45	12	7	42	25	18	43	25	22	73	60	52	62	20	0	63	40	10	70	67	inhibition at 1500 g/ha (Eleocharis kuroguwai; 6 WAT): 47%; inhibition at 3000 g/ha (Eleocharis kuroguwai; 2 WAT): 85%; inhibition at 3000 g/ha (Eleocharis kuroguwai; 4 WAT): 75%; inhibition at 3000 g/ha (Eleocharis kuroguwai; 6 WAT): 22%; inhibition at 375 g/ha (Echinochloa crus-galli; 2 WAT): 73%; inhibition at 375 g/ha (Echinochloa crus-galli; 4 WAT): 88%; inhibition at 375 g/ha (Echinochloa crus-galli; 6 WAT): 83%; inhibition at 750 g/ha (Echinochloa crus-galli; 2 WAT): 90%; inhibition at 750 g/ha (Echinochloa crus-galli; 4 WAT): 100%; inhibition at 750 g/ha (Echinochloa crus-galli; 6 WAT): 100%; inhibition at 1500 g/ha (Echinochloa crus-galli; 2 WAT): 97%; inhibition at 1500 g/ha (Echinochloa crus-galli; 4 WAT): 98%; inhibition at 1500 g/ha (Echinochloa crus-galli; 6 WAT): 93%; inhibition at 3000 g/ha (Echinochloa crus-galli; 2 WAT): 99%; inhibition at 3000 g/ha (Echinochloa crus-galli; 4 WAT): 100%; inhibition at 3000 g/ha (Echinochloa crus-galli; 6 WAT): 100%
